# From patent US20080226596A1, “Therapeutic compositions and methods useful in treating hepatitis” (priority 2006, published 2008)
# Tests used:
# Renca cells = assay: Renca cell growth in culture, MTT assay; format: cell-based, murine; settings: SSG 6.25-200 μg/ml, 6 days; listed as SSG
# Excerpt: Renca (Murphy, G. P., and W. J. Hrushesky. 1973. A murine renal cell carcinoma. J Natl Cancer Inst 50:1013), Jurkat (Gillis, S., and J. Watson. 1980. Biochemical and biological characterization of lymphocyte regulatory molecules. V. Identification of an interleukin 2-producing human leukemia T cell line. J Exp Med 152:1709) and WM9 (Forsberg, K., I. Valyi-Nagy, C. H. Heldin, M. Herlyn, and B. Westermark. 1993. Platelet-derived growth factor (PDGF) in oncogenesis: development of a vascular connective tissue stroma in xenotransplanted human melanoma producing PDGF-BB. Proc Natl Acad Sci USA 90:393) cell lines were obtained from a colleague at the Cleveland Clinic Foundation (CCF) and cultured in RPMI 1640 medium supplemented with 10% fetal calf serum (FCS). […] SSG has been described previously (Yi, T., M. K. Pathak, D. J. Lindner, M. E. Ketterer, C. Farver, and E. C. Borden. 2002. Anticancer activity of sodium stibogluconate in synergy with IFNs. J Immunol 169:5978). For cell growth inhibition assays, cells were cultured in absence or presence of various amounts of SSG for 6 days with viable cells quantified by MTT assays as described elsewhere (Pathak, M. K., and T. Yi. 2001. Sodium stibogluconate is a potent inhibitor of protein tyrosine phosphatases and augments cytokine responses in hemopoietic cell lines. J Immunol 167:3391).
# intracellular Flag-PRL-3 = biological target: T1, intracellular Flag-PRL-3 (Homo sapiens, UniProt O75365); assay: Immunocomplex PTPase assay, Flag-PRL-3 NIH3T3 transfectants; format: cell-based, mouse; settings: 5 min treatment
# T1 construct: expressed in transfected cells; host or cells: NIH3T3 transfectants, pBabepuro vector
# T1 sequence (O75365 whole entry): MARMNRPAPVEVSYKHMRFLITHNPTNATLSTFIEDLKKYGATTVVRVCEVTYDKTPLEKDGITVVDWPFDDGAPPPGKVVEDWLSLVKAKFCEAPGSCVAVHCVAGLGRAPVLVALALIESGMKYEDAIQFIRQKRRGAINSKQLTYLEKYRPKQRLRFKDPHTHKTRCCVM
# Procedure: (§1) Immunocomplex PTPase assays were performed to assess the effects of sodium stibogluconate on intracellular PTPases. Cells were untreated or treated with sodium stibogluconate for 5 minutes, washed with fresh medium and then lysed in cold lysis buffer (50 mM Tris, pH 7.4; 150 mM NaCl; 1% NP40; 2 mM PMSF; 20, g/ml of Aprotinin). The lysates were incubated with an anti-Flag antibody in immunoprecipitation assays. The immunocomplexes were collected with protein G sepharose beads (Pharmacia) and washed in cold lysis buffer for 4 times. […] 100 µL of malachite green solution (UBI) was added to each reaction prior to measurement of OD660 to quantify the amounts of free phosphate cleaved by the PTPases from the peptide substrate (Pathak et al., J. Imumol. 167, 3391 (2001)). The remaining 10% contents of individual samples were analyzed by SDS-PAGE/Western blotting to quantify the relative amounts of the phosphatase proteins. […]
# (§2) The effects of sodium stibogluconate on intracellular PTPases were assessed using NIH3T3 or WM9 transfectants. […]
# intracellular Flag-PRL-1 = biological target: T2, intracellular Flag-PRL-1 (Homo sapiens, UniProt Q93096); assay: Immunocomplex PTPase assay, Flag-PRL-1 NIH3T3 transfectants; format: cell-based, mouse; settings: 5 min treatment
# T2 construct: expressed in transfected cells; host or cells: NIH3T3 (A51) or WM9 (A61) transfectants, pBabepuro vector
# T2 sequence (Q93096 whole entry): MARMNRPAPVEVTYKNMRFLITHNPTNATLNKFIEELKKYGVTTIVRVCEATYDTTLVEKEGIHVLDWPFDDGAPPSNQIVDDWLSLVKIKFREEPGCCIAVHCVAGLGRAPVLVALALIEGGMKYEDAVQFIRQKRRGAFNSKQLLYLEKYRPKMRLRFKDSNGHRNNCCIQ
# Procedure: as §1, §2
# U251 cells = assay: U251 glioma cell growth, MTT assay; format: cell-based, human; settings: 100 μg/ml, day 6
# Procedure: NIH3T3 (Yi, et al., Blood 85, 87 (1995)), WM9 (Forsberg, et al., Proc. Nat. Acad Sci. USA 90, 393 (1993)), DU145 (Mickey, et al., Cancer Res. 37, 4049 (1977)), LoVo (Drewinko, et al., Cancer Res. 36, 467 (1976)), HEY (Buick, et al., Cancer Res. 45, 3668 (1985)), U251 (Yoshida, et al., Cancer 50, 410 (1982)), A549 (Giard, et al., J. Natl. Cancer Inst. 51, 1417 (1973)) and SK-N-SH (Helson, et al., Cancer Res. 35, 2594 (1975)) cell lines have been described and were cultured in RPMI 1640 supplemented with 10% fetal calf serum (FCS). For measurement of sodium stibogluconate effects on cell growth in vitro, cells were cultured in the absence (−) or presence (+) of various amounts of sodium stibogluconate for 6 days with viable cells quantified by MTT assays (Mosmann, J. Immunol. Methods 65, 55 (1983)). Percentages of growth inhibition by sodium stibogluconate were calculated (.+−.x
# [1] = Toxicity/tolerance of sodium stibogluconate in nude mice; format: in vivo
# Procedure: The dosage of sodium stibogluconate corresponds to approximately 440 mg Sb/kg body weight (average mouse body weight 27 g), substantially higher than the standard therapeutic dose of 20 mg Sb/kg and the high dose (143 mg Sb/kg) that was clinically used by accident without serious toxicity. This dose of sodium stibogluconate was based on a previous observation in a pilot study that mice could tolerate daily dose of 20 mg Sb (approximately 700-800 mg Sb/kg). […] In light of the relatively rapid rate of clearance of the drug in vivo, 440 mg Sb/kg dosage was used to ensure the detection of the effectiveness of the drug for this initial study.
# As discussed above, the dosage of sodium stibogluconate used for the treatment of nude mice was 12 mg Sb/mouse, s.c., daily (or approximately 440 mg/kg body weight). This dosage is much higher than the standard dose for leishmaniasis (20 mg Sb/kg, daily). As an initial step to assess the toxicity of such a high dosage of sodium stibogluconate in nude mice, the effect of sodium stibogluconate on the viability and body weights of WM9 xenografts nude mice during the 25 day period of the study was determined.
smiles,measurement,setting,value
O.O.O.O.O.O.O.O.O.O=C([O-])[C@@H]1[O][Sb]2([O-])([O][Sb]34([OH])[O][C@H]([C@H](O)CO)[C@H]([O]3)[C@H](C(=O)[O-])[O]4)[O][C@H]([C@H](O)CO)[C@@H]1[O]2.[Na+].[Na+].[Na+] [sodium stibogluconate],Renca cell growth in culture,Renca cells,failed to inhibit Renca cell proliferation in culture
same,PTPase activity of Flag-PRL-3 immunocomplexes from treated cells,intracellular Flag-PRL-3,lack of PTPase activity
same,PTPase activity of Flag-PRL-1 immunocomplexes from treated cells,intracellular Flag-PRL-1,little PTPase activities
same,killing of U251 cells,U251 cells,near-complete cell killing
same,tolerability,[1]; 12 mg Sb daily (440 mg Sb/kg daily),well tolerated with no serious side effects
same,tolerated daily dose in mice,[1]; pilot study,20 mg Sb
same,tolerated daily dose in mice per body weight,[1]; pilot study,700-800 mg Sb/kg
same,internal organs on dissection,[1]; two mice from each group,no apparent abnormality of the internal organs
same,survival of WM9-inoculated nude mice,"[1]; until day 25, 4 mice/group",survived
